According to ChEMBL document CHEMBL1201862, “PubChem BioAssay data set” (2004):
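In this assay, cells in 96-well plates receive the compound at five concentrations for 48 hours. Endpoints are linearly interpolated between the surrounding concentrations. GI50 is the concentration that inhibits growth by half.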 The source made the active and inactive calls. Rule as the data show it: active = GI50 up to about 1.1 µM and inactive = higher.

Experiments:
Assay in all cases: NCI anticancer screen, dose series, 48 h
[1] = system: SN12C
[2] = system: A549
[3] = system: NCI-H460
[4] = system: SR
[5] = system: OVCAR-3
[6] = system: EKVX
[7] = system: NCI-H522
[8] = system: TK-10
[9] = system: CCRF-CEM
[10] = system: A498
[11] = system: CAKI-1
[12] = system: HT-29
[13] = system: OVCAR-4
[14] = system: 786-0
[15] = system: UACC-62
[16] = system: ACHN
[17] = system: RPMI-8226
[18] = system: SNB-75
[19] = system: SF-295
[20] = system: DMS-114
[21] = system: SNB-78
[22] = system: UACC-257
[23] = system: MOLT-4
[24] = system: Malme-3M
[25] = system: K562
[26] = system: M14
[27] = system: OVCAR-5
[28] = system: KM12
[29] = system: LOX IMVI
[30] = system: NCI-H23
[31] = system: LXFL 529
[32] = system: OVCAR-8
[33] = system: DLD-1
[34] = system: SK-OV-3
[35] = system: SK-MEL-28
[36] = system: M19-MEL
[37] = system: IGROV-1
[38] = system: SK-MEL-5
[39] = system: SF-539
[40] = system: HOP-62
[41] = system: SK-MEL-2
[42] = system: HCT-15
[43] = system: UO-31
[44] = system: KM-20L2
[45] = system: SW-620
[46] = system: COLO 205
[47] = system: SF-268
[48] = system: HOP-18
[49] = system: HL-60
[50] = system: SNB-19
[51] = system: HOP-92
[52] = system: DMS-273
[53] = system: U-251
[54] = system: HCT-116
[55] = system: NCI-H226
[56] = system: XF498
[57] = system: RXF 393
[58] = system: HCC 2998

COc1ccc(N(C)CN(C)c2nc(N(C)C)nc(N(C)C)n2)cc1
GI50 [1]: > 100 µM (inactive)
GI50 [2]: > 100 µM (inactive)
GI50 [3]: > 100 µM (inactive)
GI50 [4]: > 100 µM (inactive)
GI50 [5]: > 100 µM (inactive)
GI50 [6]: > 100 µM (inactive)
GI50 [7]: > 100 µM (inactive)
GI50 [8]: > 100 µM (inactive)
GI50 [9]: > 100 µM (inactive)
GI50 [10]: > 100 µM (inactive)
GI50 [11]: > 100 µM (inactive)
GI50 [12]: > 100 µM (inactive)
GI50 [13]: > 100 µM (inactive)
GI50 [14]: > 100 µM (inactive)
GI50 [15]: > 100 µM (inactive)
GI50 [16]: > 100 µM (inactive)
GI50 [17]: > 100 µM (inactive)
GI50 [18]: > 100 µM (inactive)
GI50 [19]: > 100 µM (inactive)
GI50 [20]: > 100 µM (inactive)
GI50 [21]: > 100 µM (inactive)
GI50 [22]: > 100 µM (inactive)
GI50 [23]: > 100 µM (inactive)
GI50 [24]: > 100 µM (inactive)
GI50 [25]: > 100 µM (inactive)
GI50 [26]: > 100 µM (inactive)
GI50 [27]: > 100 µM (inactive)
GI50 [28]: > 100 µM (inactive)
GI50 [29]: > 100 µM (inactive)
GI50 [30]: > 100 µM (inactive)
GI50 [31]: > 100 µM (inactive)
GI50 [32]: > 100 µM (inactive)
GI50 [33]: > 100 µM (inactive)
GI50 [34]: > 100 µM (inactive)
GI50 [35]: > 100 µM (inactive)
GI50 [36]: > 100 µM (inactive)
GI50 [37]: > 100 µM (inactive)
GI50 [38]: > 100 µM (inactive)
GI50 [39]: > 100 µM (inactive)
GI50 [40]: > 100 µM (inactive)
GI50 [41]: > 100 µM (inactive)
GI50 [42]: > 100 µM
GI50 [43]: > 100 µM (inactive)
GI50 [44]: > 100 µM (inactive)
GI50 [45]: > 100 µM (inactive)
GI50 [46]: > 100 µM (inactive)
GI50 [47]: > 100 µM (inactive)
GI50 [48]: > 100 µM (inactive)
GI50 [49]: > 100 µM (inactive)
GI50 [50]: > 100 µM (inactive)
GI50 [51]: > 100 µM (inactive)
GI50 [52]: > 100 µM (inactive)
GI50 [53]: > 100 µM (inactive)
GI50 [54]: > 100 µM (inactive)

CC(=O)OC1CC2Oc3ccc(C)cc3C(C)(O2)C1=O (stereo not given)
GI50 [1]: > 100 µM (inactive)
GI50 [2]: > 100 µM (inactive)
GI50 [3]: > 100 µM (inactive)
GI50 [5]: > 100 µM (inactive)
GI50 [6]: > 100 µM (inactive)
GI50 [7]: > 100 µM (inactive)
GI50 [8]: > 100 µM (inactive)
GI50 [9]: > 100 µM (inactive)
GI50 [12]: > 100 µM (inactive)
GI50 [14]: > 100 µM (inactive)
GI50 [55]: > 100 µM (inactive)
GI50 [15]: > 100 µM (inactive)
GI50 [16]: > 100 µM (inactive)
GI50 [17]: > 100 µM (inactive)
GI50 [18]: 51.1 µM (inactive)
GI50 [19]: > 100 µM (inactive)
GI50 [20]: > 100 µM (inactive)
GI50 [22]: > 100 µM (inactive)
GI50 [23]: > 100 µM (inactive)
GI50 [24]: > 100 µM (inactive)
GI50 [56]: 76 µM (inactive)
GI50 [25]: > 100 µM (inactive)
GI50 [26]: > 100 µM (inactive)
GI50 [57]: > 100 µM (inactive)
GI50 [28]: > 100 µM (inactive)
GI50 [29]: > 100 µM (inactive)
GI50 [30]: > 100 µM (inactive)
GI50 [32]: > 100 µM (inactive)
GI50 [33]: > 100 µM (inactive)
GI50 [34]: > 100 µM (inactive)
GI50 [35]: > 100 µM (inactive)
GI50 [36]: > 100 µM (inactive)
GI50 [37]: > 100 µM (inactive)
GI50 [38]: > 100 µM (inactive)
GI50 [39]: > 100 µM (inactive)
GI50 [40]: > 100 µM (inactive)
GI50 [42]: > 100 µM
GI50 [43]: > 100 µM (inactive)
GI50 [45]: > 100 µM (inactive)
GI50 [46]: > 100 µM (inactive)
GI50 [48]: > 100 µM (inactive)
GI50 [49]: > 100 µM (inactive)
GI50 [50]: > 100 µM (inactive)
GI50 [52]: > 100 µM (inactive)
GI50 [53]: > 100 µM (inactive)
GI50 [54]: > 100 µM (inactive)

COc1c(C)c(O)c2c(c1C)OC(c1ccccc1)CC2=O (stereo not given)
GI50 [1]: 52.5 µM (inactive)
GI50 [2]: 52.5 µM (inactive)
GI50 [3]: 36.8 µM (inactive)
GI50 [4]: 23.5 µM (inactive)
GI50 [5]: > 100 µM (inactive)
GI50 [6]: 65.2 µM (inactive)
GI50 [7]: 45.9 µM (inactive)
GI50 [8]: 42.9 µM (inactive)
GI50 [9]: 31.4 µM (inactive)
GI50 [10]: 19.9 µM (inactive)
GI50 [11]: 41.2 µM (inactive)
GI50 [12]: 43.2 µM (inactive)
GI50 [13]: 67.9 µM (inactive)
GI50 [14]: 89.3 µM (inactive)
GI50 [55]: 38.9 µM (inactive)
GI50 [15]: 53 µM (inactive)
GI50 [16]: 51.9 µM (inactive)
GI50 [17]: 36.1 µM (inactive)
GI50 [18]: 65 µM (inactive)
GI50 [19]: 50.6 µM (inactive)
GI50 [20]: 40.8 µM (inactive)
GI50 [21]: > 100 µM (inactive)
GI50 [22]: > 10 µM (inactive)
GI50 [23]: 31.8 µM (inactive)
GI50 [24]: 24.6 µM (inactive)
GI50 [25]: 35.1 µM (inactive)
GI50 [26]: 67.1 µM (inactive)
GI50 [27]: 61.8 µM (inactive)
GI50 [28]: 52.6 µM (inactive)
GI50 [29]: 46.3 µM (inactive)
GI50 [30]: 42.5 µM (inactive)
GI50 [31]: 35.2 µM (inactive)
GI50 [32]: 62.4 µM (inactive)
GI50 [33]: 66.1 µM (inactive)
GI50 [34]: > 100 µM (inactive)
GI50 [35]: 50.4 µM (inactive)
GI50 [36]: 38.1 µM (inactive)
GI50 [37]: 98.9 µM (inactive)
GI50 [38]: > 10 µM (inactive)
GI50 [39]: 84.5 µM (inactive)
GI50 [40]: > 100 µM (inactive)
GI50 [41]: 22.4 µM (inactive)
GI50 [58]: 56.1 µM (inactive)
GI50 [42]: 30.5 µM
GI50 [43]: 61.7 µM (inactive)
GI50 [44]: 31.6 µM (inactive)
GI50 [45]: 64.4 µM (inactive)
GI50 [47]: 56.9 µM (inactive)
GI50 [48]: 25 µM (inactive)
GI50 [49]: 28.3 µM (inactive)
GI50 [51]: 29.6 µM (inactive)
GI50 [52]: 59.6 µM (inactive)
GI50 [53]: 67.9 µM (inactive)
GI50 [54]: 47.8 µM (inactive)

CCOC(=O)/C=C/n1c2ccccc2c(=O)c2ccccc21
GI50 [1]: > 100 µM (inactive)
GI50 [2]: > 100 µM (inactive)
GI50 [3]: > 100 µM (inactive)
GI50 [4]: > 100 µM (inactive)
GI50 [5]: > 100 µM (inactive)
GI50 [6]: > 100 µM (inactive)
GI50 [7]: > 100 µM (inactive)
GI50 [8]: > 100 µM (inactive)
GI50 [9]: > 100 µM (inactive)
GI50 [10]: > 100 µM (inactive)
GI50 [11]: > 100 µM (inactive)
GI50 [12]: > 100 µM (inactive)
GI50 [13]: > 100 µM (inactive)
GI50 [14]: > 100 µM (inactive)
GI50 [55]: > 100 µM (inactive)
GI50 [15]: > 100 µM (inactive)
GI50 [16]: > 100 µM (inactive)
GI50 [17]: > 100 µM (inactive)
GI50 [19]: > 100 µM (inactive)
GI50 [20]: > 100 µM (inactive)
GI50 [22]: > 100 µM (inactive)
GI50 [23]: > 100 µM (inactive)
GI50 [24]: > 100 µM (inactive)
GI50 [56]: > 100 µM (inactive)
GI50 [25]: > 100 µM (inactive)
GI50 [26]: > 100 µM (inactive)
GI50 [57]: > 100 µM (inactive)
GI50 [28]: > 100 µM (inactive)
GI50 [29]: > 100 µM (inactive)
GI50 [30]: > 100 µM (inactive)
GI50 [31]: > 100 µM (inactive)
GI50 [32]: > 100 µM (inactive)
GI50 [33]: 23.1 µM (inactive)
GI50 [35]: > 100 µM (inactive)
GI50 [36]: > 100 µM (inactive)
GI50 [37]: > 100 µM (inactive)
GI50 [39]: > 100 µM (inactive)
GI50 [40]: > 100 µM (inactive)
GI50 [41]: > 100 µM (inactive)
GI50 [58]: > 100 µM (inactive)
GI50 [42]: > 100 µM
GI50 [43]: > 100 µM (inactive)
GI50 [44]: > 100 µM (inactive)
GI50 [45]: > 100 µM (inactive)
GI50 [46]: > 100 µM (inactive)
GI50 [47]: > 100 µM (inactive)
GI50 [49]: > 100 µM (inactive)
GI50 [50]: > 100 µM (inactive)
GI50 [52]: > 100 µM (inactive)
GI50 [53]: > 100 µM (inactive)
GI50 [54]: > 100 µM (inactive)
